# From patent publication US10316017B2, “COT modulators and methods of use thereof” (Gilead Sciences, Inc., priority 2015, dated 2019)
# Columns and labels:
# [1] = system: TNFα production in LPS-stimulated human monocytes; experiment: Cot Monocyte TNFα Cell Based Assay; details: Homo sapiens, Monocyte, LPS-stimulated human monocytes, TNFα TR-FRET; read-out: EC50 TNF
# Summary of the method: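 TR-FRET read-out of total secreted TNFα, normalized as % control (unstimulated = 0%, LPS-stimulated = 100%). Cells (5,000/well) were exposed to compound 1 h at 37 °C, then to 50 pg/ml LPS for a further 4 h.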
# [2] = target: T1, human Cot catalytic domain (30-397 amino acids) (Homo sapiens, UniProt P41279); experiment: High Throughput Cot Biochemical Assay (KinEASE TR-FRET); details: Cot KinEASE TR-FRET, 400 μM ATP; read-out: IC50 HTRF
# T1 construct: Purified recombinant human Cot catalytic domain (30-397 amino acids) was purchased from Cama Biosciences; purchased Cama Biosciences (so in the source)
# T1 sequence (P41279 30-397): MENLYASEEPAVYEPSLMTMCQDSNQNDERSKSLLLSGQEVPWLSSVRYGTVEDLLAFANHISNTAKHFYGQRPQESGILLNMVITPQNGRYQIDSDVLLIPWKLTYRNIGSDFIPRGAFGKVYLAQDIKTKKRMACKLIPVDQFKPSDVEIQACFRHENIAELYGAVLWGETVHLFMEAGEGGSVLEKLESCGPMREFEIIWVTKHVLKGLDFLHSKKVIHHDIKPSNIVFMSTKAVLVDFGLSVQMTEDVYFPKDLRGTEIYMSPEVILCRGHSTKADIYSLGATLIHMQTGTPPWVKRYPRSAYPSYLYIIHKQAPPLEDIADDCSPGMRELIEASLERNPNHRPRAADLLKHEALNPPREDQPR
# Summary of the method: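 TR-FRET readout: Eu-labeled phospho-specific antibody binds XL665-tagged STK3 peptide after phosphorylation by Cot (aa 30-397, 5 nM). Conditions: 400 μM ATP, 1 μM peptide, MOPS pH 7.0 buffer with MgOAc, DTT, BSA, NP-40, glycerol; 0.1% DMSO.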
EC50 [1] [nM],IC50 [2] [nM],Compound
60,1,"Cc1c(-c2ccnnc2)cccc1[C@H](Nc1cc(C#N)c2ncc(C#N)c(NCC(C)(C)C)c2c1)c1cn(C2(C(F)F)CC2)nn1 [Example 1155, (S)-6-(((1-(1-(difluoromethyl)cyclopropyl)-1H-1,2,3-triazol-4-yl)(2-methyl-3-(pyridazin-4-yl)phenyl)methyl)amino)-4-(neopentylamino)quinoline-3,8-dicarbonitrile]"
13,1,"Cc1c(C#N)cccc1[C@H](Nc1cc(C#N)c2ncc(C#N)c(NCC(C)(C)C)c2c1)c1cn(C23CC(C2)C3)nn1 [Example 1156, (S)-6-(((1-(bicyclo[1.1.1]pentan-1-yl)-1H-1,2,3-triazol-4-yl)(3-cyano-2-methylphenyl)methyl)amino)-4-(neopentylamino)quinoline-3,8-dicarbonitrile]"
15,3,"Cc1c(C#N)cccc1[C@H](Nc1cc(C#N)c2ncc(C#N)c(NCC(C)(C)C)c2c1)c1cn(C2(C3CC3)CC2)nn1 [Example 1157, (S)-6-(((1-([1,1'-bi(cyclopropan)]-1-yl)-1H-1,2,3-triazol-4-yl)(3-cyano-2-methylphenyl)methyl)amino)-4-(neopentylamino)quinoline-3,8-dicarbonitrile]"
26,2,"Cc1c(-c2cnco2)cccc1[C@H](Nc1cc(C#N)c2ncc(C#N)c(NCC(C)(C)C)c2c1)c1cn(C2(C(F)F)CC2)nn1 [Example 1158, (S)-6-(((1-(1-(difluoromethyl)cyclopropyl)-1H-1,2,3-triazol-4-yl)(2-methyl-3-(oxazol-5-yl)phenyl)methyl)amino)-4-(neopentylamino)quinoline-3,8-dicarbonitrile]"
421,50,"CC(C)(C)CNc1c(C#N)cnc2c(C#N)cc(N[C@@H](c3ccccc3Cl)c3nnn(C4(C)CC4)c3F)cc12 [Example 1159, (S)-6-(((2-chlorophenyl)(5-fluoro-1-(1-methylcyclopropyl)-1H-1,2,3-triazol-4-yl)methyl)amino)-4-(neopentylamino)quinoline-3,8-dicarbonitrile]"
930,71,"COc1c([C@@H](Nc2cc(C#N)c3ncc(C#N)c(NCC(C)(C)C)c3c2)c2ccccc2Cl)nnn1C1(C)CC1 [Example 1160, (S)-6-(((2-chlorophenyl)(5-methoxy-1-(1-methylcyclopropyl)-1H-1,2,3-triazol-4-yl)methyl)amino)-4-(neopentylamino)quinoline-3,8-dicarbonitrile]"
45,14,"Cc1nnc(C2(n3cc([C@@H](Nc4cc(C#N)c5ncc(C#N)c(NCC(C)(C)C)c5c4)c4ccccc4Cl)nn3)CC2)o1 [Example 1161, (S)-6-(((2-chlorophenyl)(1-(1-(5-methyl-1,3,4-oxadiazol-2-yl)cyclopropyl)-1H-1,2,3-triazol-4-yl)methyl)amino)-4-(neopentylamino)quinoline-3,8-dicarbonitrile]"
477,16,"Cc1c(-c2ccn(C)n2)cccc1[C@H](Nc1cc(Cl)c2ncc(C#N)c(NCC(C)(C)C)c2c1)c1cn(C2(C(F)(F)F)CC2)nn1 [Example 1162, (S)-8-chloro-6-(((2-methyl-3-(1-methyl-1H-pyrazol-3-yl)phenyl) (1-(1-(trifluoromethyl)cyclopropyl)-1H-1,2,3-triazol-4-yl)methyl)amino)-4-(neopentylamino)quinoline-3-carbonitrile]"
463,19,"Cc1c(-c2cc[nH]n2)cccc1[C@H](Nc1cc(Cl)c2ncc(C#N)c(NCC(C)(C)C)c2c1)c1cn(C2(C(F)(F)F)CC2)nn1 [Example 1163, (S)-8-chloro-6-(((2-methyl-3-(1H-pyrazol-3-yl)phenyl)(1-(1-(trifluoromethyl)cyclopropyl)-1H-1,2,3-triazol-4-yl)methyl)amino)-4-(neopentylamino)quinoline-3-carbonitrile]"
